# Test results as given in publication PMC7913925, “Design and Evaluation of a Polypeptide That Mimics the Integrin Binding Site for EDA Fibronectin to Block Profibrotic Cell Activity” (International Journal of Molecular Sciences, 2021).
# Bridges are numbered along the chain shown (N, C = ends). Where no end group is shown, it is not given here.
# How the values were obtained:
# [1] = biological target: FN-EDA (peptide sharing sequence with the C-C′ loop of EDA-FN) (Homo sapiens, UniProt P02751); assay: Isothermal calorimetry, AF38Pep with FN-EDA; type: binding; conditions: 25 °C, pH 7
# Experimental: (§1) Custom designed peptides were resuspended in sterile-filtered HEPES buffered saline (140 mM NaCl, 1.5 mM Na2HPO4, 50 mM HEPES; pH 7). The larger EDA-FN binding peptide was diluted to 15 µM, degassed and added to the calorimetry chamber well. Three smaller test peptides (fibronectin EDA-peptide, FN-EDA; fibronectin RGD-peptide, FN-RGD and collagen I RGD-peptide, COL-RGD) were diluted to 300 µM, degassed and each was separately loaded into the calorimetry injection needle. The chamber well temperature was kept consistent at 25 °C. Blank buffer was used to replace either the well peptide or the injection needle peptide to account for background heat generation. Isothermal titration calorimetry was performed using a MicroCal iTC200 (Malvern Panalytical, Malvern, UK) and dissociation constant (KD) and association constant (KA) were calculated using the one set of sites model fitting (with number of binding sites assumed to be 1) in MicroCal Origin Software v8.5 (Malvern Panalytical).
# [2] = biological target: FN-RGD (RGD motif of fibronectin) (Homo sapiens, UniProt P02751); assay: Isothermal calorimetry, AF38Pep with FN-RGD; type: binding; conditions: 25 °C, pH 7
# Experimental: as §1
# [3] = tested on: human HFL1 lung fibroblast cells, α-SMA mRNA; assay: α-SMA mRNA expression (qRT-PCR) in TGF-β1-treated HFL1; type: cell-based
# Experimental: (§2) HFL1 cells were cultured in Kaighn’s modified Ham’s F-12 (F-12K) medium (Sigma-Aldrich) containing NaHCO3 and HEPES buffered to pH 7. Cells were grown to confluence in T75 culture flasks in the presence of 10% fetal bovine serum (FBS; Gibco, Thermo Fisher Scientific, Waltham, MA, USA). HFL1 cells were subcultured using 0.05% trypsin at a ratio of 1:3. NIH/3T3 cells were cultured in Dulbecco’s Modified Eagle Medium (DMEM; HyClone, Thermo Fisher Scientific) containing 100 U/mL penicillin and 100 μg/mL streptomycin. Cells were grown to confluence in T75 culture flasks in the presence of 10% FBS. NIH/3T3 cells were subcultured using 0.05% trypsin/EDTA at a ratio of 1:3. All cells were maintained at 37 °C and 5% CO2, and growth medium was replenished every 3 days until experimentation. Cells were growth-arrested in serum-free medium for 48 h before experiments, and all experiments were performed under serum-free conditions using cells between passages 3 and 8.
# Reverse transcription (RT) and real-time quantitative PCR (qRT-PCR) were used to assess ACTA2/Acta2, Col1a1, Col3a1, Fn1, Eda-Fn1, Mmp9, Tgfb1, Ltbp1, Hic5, and Mrtfa mRNA expressions. Custom PCR primers were designed in-house (Table 2) and then synthesized by BGI (Beijing, China). […]
# [4] = tested on: mouse NIH/3T3 dermal fibroblast cells; assay: Cytotoxicity/proliferation assay (CCK-8) NIH/3T3; type: cell-based; conditions: TGF-β1 stimulated NIH/3T3, over 72 h
# Experimental: as §2
# (§3) Cells were seeded into 12-well culture plates at a density of 2.5 × 10^4 and when cultures reached 50% confluence, the culture medium was replaced with fresh serum-free F12K or serum-free DMEM/F12 for 48 h (growth arrest). […] Absorbance was measured at 450 nm wavelength using a Bio-Rad optical plate reader.
# [5] = tested on: human HFL1 lung fibroblast cells; assay: Cytotoxicity/proliferation assay (CCK-8) HFL1; type: cell-based; conditions: TGF-β1 stimulated HFL1, over 72 h
# Experimental: as §2, §3
# [6] = tested on: EDA-FN; assay: Western blot total protein EDA-FN; type: cell-based; conditions: 48 h, TGF-β1+AF38Pep
# [7] = tested on: Mmp9 mRNA in NIH/3T3 fibroblasts; assay: qRT-PCR Mmp9 mRNA; type: cell-based, mouse; conditions: 48 h, TGF-β1 10 ng/mL
# Experimental: (§4) Reverse transcription (RT) and real-time quantitative PCR (qRT-PCR) were used to assess ACTA2/Acta2, Col1a1, Col3a1, Fn1, Eda-Fn1, Mmp9, Tgfb1, Ltbp1, Hic5, and Mrtfa mRNA expressions. Custom PCR primers were designed in-house (Table 2) and then synthesized by BGI (Beijing, China). Cells were grown in 6-well culture plates and washed with phosphate buffered saline (PBS) before lysis with TRIzon Reagent (CWBio, Beijing, China) and total RNA purification according to the manufacturer’s protocol. Reverse transcription was carried using the TransScript First-Strand cDNA Synthesis SuperMix kit according to the manufacturer’s protocol (TransGen, Beijing, China), using the random primer method for the initiation of cDNA synthesis. Nuclease-free H2O replaced the RNA sample to serve as a negative control for the reverse transcription reaction. For qRT-PCR, 10 µL 2× TransStart Top Green qPCR SuperMix was added to each well of a 96-well PCR plate containing 0.4 µL forward primer, 0.4 µL reverse primer, […], and nuclease-free water to a total volume of 20 µL. The qRT-PCR reaction was completed using a CFX96 Real-Time PCR Detection System (Bio-Rad Laboratories, Hercules, CA, USA). Amplification used the following parameters: 94 °C for 30 s, followed by 40 cycles of 94 °C for 5 s, 55 °C for 15 s, 72 °C for 10 s, and then a dissociation stage (melt-curve). […]
# [8] = tested on: Ltbp1 mRNA in NIH/3T3 fibroblasts; assay: qRT-PCR Ltbp1 mRNA; type: cell-based, mouse; conditions: 48 h, TGF-β1 10 ng/mL
# Experimental: as §4
# [9] = tested on: Hic5 mRNA in NIH/3T3 fibroblasts; assay: qRT-PCR Hic5 mRNA; type: cell-based, mouse; conditions: 48 h, TGF-β1 10 ng/mL
# Experimental: as §4
sequence,measurement,setting,value
VMPYISTTPAKPCTSENCGNSWYGGFKSKNENKIYFIN (disulfide 13-18 (inferred)) [AF38Pep],ITC interaction (thermogram),[1],there was a detectable interaction between AF38Pep and FN-EDA
same,ITC interaction (thermogram),[2],not between AF38Pep and FN-RGD or COL-RGD
same,attenuation of TGF-β1-induced α-SMA mRNA,"[3]; HFL1, 48 h, 0.1–10 µg/mL",significantly reduced by 0.1–10 µg/mL peptide at 48 h
same,attenuation of TGF-β1-induced α-SMA mRNA,"[3]; HFL1, 72 h, 10 µg/mL",only 10 µg/mL was sufficient for inhibition of expression at 72 h
same,cytotoxicity/proliferation,[4],did not interfere with cell proliferation nor incur cell death
same,cytotoxicity/proliferation,[5],not detrimental to cell numbers
same,TGF-β1-driven EDA-FN total protein increase,[6],"marginally, but significantly, attenuated"
same,MMP9 mRNA expression,[7],attenuated
same,LTBP1 mRNA expression,[8],attenuated
same,HIC5 mRNA expression,[9],attenuated
